Source: patent US11826351B2, “Compounds useful as kinase inhibitors” (Loxo Oncology, Inc., priority 2015, dated 2023)

Assays:
[1] = test system: OCI-Ly10 human DLBCL cells; experiment: OCI-Ly10 anti-proliferative activity (Resazurin); type: cell-based; details: Homo sapiens, OCI-Ly10, 72 h, OCI-Ly10 cells, 72 h compound treatment, Resazurin; read-out: Proliferation Assay OCI-Ly10-20% FBS
Protocol: Compounds were assayed for effects on the growth of OCI-Ly10 human DLBCL cells that are dependent on NFκB signalling. […] Cells were then plated at 7.5×10^3 cells per well in 96-well plates in varying concentrations of compound and incubated for 72 h at 37° C. An additional plate of cells to be used as the Day 0 read was seeded without compound addition, Resazurin was added to each well, incubated for 5 h and the fluorescence measured at 590 nm. After 72 h of compound treatment, Resazurin was added to each well of the compound treated plates, incubated for 5 h and the fluorescence measured at 590 nm. The IC50 was then calculated by subtracting the average Day 0 value from each well value from the treated plates, each treatment was then calculated as a percentage of the DMSO control and the percentages plotted against the inhibitor concentration to estimate the IC50 from log[Inhibitor] vs response using the Variable Slope model in Graphpad prism from Graphpad software (San Diego, Calif.).

[2] = molecular target: T1, Recombinant BTK^WT kinase (Homo sapiens, UniProt Q06187); experiment: BTK WT binding affinity (LanthaScreen TR-FRET); details: Kinase Tracer 236, 5 h incubation
T1 construct: purchased Invitrogen
T1 sequence (Q06187 whole entry): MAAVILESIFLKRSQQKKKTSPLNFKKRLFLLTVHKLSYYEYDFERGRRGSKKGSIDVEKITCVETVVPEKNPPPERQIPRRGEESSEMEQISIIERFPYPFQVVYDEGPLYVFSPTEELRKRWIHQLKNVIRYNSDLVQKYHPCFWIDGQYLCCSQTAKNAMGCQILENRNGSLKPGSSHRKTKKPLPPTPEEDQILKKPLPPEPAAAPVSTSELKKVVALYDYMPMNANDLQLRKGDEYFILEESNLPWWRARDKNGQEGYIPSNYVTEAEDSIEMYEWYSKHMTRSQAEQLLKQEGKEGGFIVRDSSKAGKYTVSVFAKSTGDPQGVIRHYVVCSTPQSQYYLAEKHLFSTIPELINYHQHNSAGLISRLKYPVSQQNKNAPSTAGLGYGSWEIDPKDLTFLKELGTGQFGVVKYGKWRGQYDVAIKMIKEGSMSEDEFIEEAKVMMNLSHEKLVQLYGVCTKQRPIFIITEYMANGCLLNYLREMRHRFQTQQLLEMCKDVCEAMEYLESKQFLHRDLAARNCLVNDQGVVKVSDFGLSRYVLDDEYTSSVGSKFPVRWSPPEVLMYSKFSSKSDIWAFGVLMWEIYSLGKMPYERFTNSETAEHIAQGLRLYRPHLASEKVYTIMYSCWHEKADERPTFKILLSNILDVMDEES
Protocol: BTK^WT binding affinity of each compound tested was determined using a time-resolved fluorescence resonance energy transfer (TR-FRET) methodology. 2.5 nM Recombinant BTK^WT kinase, varying concentrations of inhibitor, 2 nM LanthaScreen™ Eu anti-His Antibody and 15 nM Kinase Tracer 236 was incubated in 1× LanthaScreen™ Kinase Buffer A for 5 h. Recombinant BTK kinase and all LanthaScreen™ components were purchased from Invitrogen. Measurements were performed in a reaction volume of 30 μL using half-area 96-well assay plates. The TR-FRET signal was read on a plate reader with an excitation wavelength of 340 nm and detection wavelengths of 615 and 665 nm. Binding affinity was determined for each compound by measuring TR-FRET signal at various concentrations of compound and plotting the relative fluorescence units against the inhibitor concentration to estimate the IC50 from log[Inhibitor] vs response using the Variable Slope model in Graphpad prism from Graphpad software (San Diego, Calif.).

[3] = molecular target: T2, Recombinant BTK^C481S kinase (Homo sapiens, UniProt Q06187, C481S); experiment: BTK C481S binding affinity (LanthaScreen TR-FRET); details: Kinase Tracer 236, 5 h incubation
T2 construct: purchased SignalChem
T2 sequence (Q06187 whole entry C481S): as the sequence (Q06187 whole entry) above, with C481S counted along it
Protocol: BTK^C481S binding affinity of each compound tested was determined using a time-resolved fluorescence resonance energy transfer (TR-FRET) methodology. 5 nM Recombinant BTK^WT kinase, varying concentrations of inhibitor, 2 nM LanthaScreen™ Eu anti-His Antibody and 30 nM Kinase Tracer 236 was incubated in 1× LanthaScreen™ Kinase Buffer A for 5 h. Recombinant BTK^C481S kinase was purchased from SignalChem and all LanthaScreen™ components were purchased from Invitrogen. Measurements were performed in a reaction volume of 30 μL using half-area 96-well assay plates. The TR-FRET signal was read on a plate reader with an excitation wavelength of 340 nm and detection wavelengths of 615 and 665 nm. Binding affinity was determined for each compound by measuring TR-FRET signal at various concentrations of compound and plotting the relative fluorescence units against the inhibitor concentration to estimate the IC50 from log[Inhibitor] vs response using the Variable Slope model in Graphpad prism from Graphpad software (San Diego, Calif.).

Recombinant EGFR = molecular target: T3, Recombinant EGFR (Homo sapiens, UniProt P00533); experiment: EGFR binding affinity (LanthaScreen TR-FRET); details: Kinase Tracer 199, 5 h incubation
T3 construct: purchased Invitrogen
T3 sequence (P00533 25-1210): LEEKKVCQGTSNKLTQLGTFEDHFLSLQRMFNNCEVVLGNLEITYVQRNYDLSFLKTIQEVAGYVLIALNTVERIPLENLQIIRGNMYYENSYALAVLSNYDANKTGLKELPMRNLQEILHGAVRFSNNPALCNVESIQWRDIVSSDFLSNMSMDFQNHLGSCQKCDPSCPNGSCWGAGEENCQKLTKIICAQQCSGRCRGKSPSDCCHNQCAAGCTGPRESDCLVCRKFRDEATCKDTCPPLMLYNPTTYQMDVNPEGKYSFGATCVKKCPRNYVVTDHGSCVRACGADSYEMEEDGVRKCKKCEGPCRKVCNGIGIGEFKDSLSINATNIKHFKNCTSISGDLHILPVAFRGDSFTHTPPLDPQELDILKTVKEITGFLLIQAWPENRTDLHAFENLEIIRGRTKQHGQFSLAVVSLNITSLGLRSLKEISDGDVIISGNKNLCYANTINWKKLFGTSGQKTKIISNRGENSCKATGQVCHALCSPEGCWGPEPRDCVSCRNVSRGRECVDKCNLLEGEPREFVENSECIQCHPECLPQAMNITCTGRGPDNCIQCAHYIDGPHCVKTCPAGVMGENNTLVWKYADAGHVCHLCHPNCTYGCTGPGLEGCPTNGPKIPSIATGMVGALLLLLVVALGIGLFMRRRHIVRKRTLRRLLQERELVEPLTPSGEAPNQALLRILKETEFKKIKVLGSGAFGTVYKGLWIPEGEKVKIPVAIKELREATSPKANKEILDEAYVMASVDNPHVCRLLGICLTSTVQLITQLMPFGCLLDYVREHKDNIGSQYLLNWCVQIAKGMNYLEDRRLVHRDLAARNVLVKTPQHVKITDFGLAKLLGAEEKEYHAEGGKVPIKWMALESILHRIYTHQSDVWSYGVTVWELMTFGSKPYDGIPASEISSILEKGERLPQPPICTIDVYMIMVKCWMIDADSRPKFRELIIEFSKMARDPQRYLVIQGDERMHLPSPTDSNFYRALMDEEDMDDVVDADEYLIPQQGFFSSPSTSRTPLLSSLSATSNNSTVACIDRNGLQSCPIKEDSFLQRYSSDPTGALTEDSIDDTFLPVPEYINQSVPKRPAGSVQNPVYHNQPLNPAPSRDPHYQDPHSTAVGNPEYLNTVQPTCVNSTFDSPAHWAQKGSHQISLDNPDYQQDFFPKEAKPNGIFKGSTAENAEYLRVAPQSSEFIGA
Protocol: EGFR binding affinity was determined using a time-resolved fluorescence resonance energy transfer (TR-FRET) methodology. […] Recombinant EGFR and all LanthaScreen™ components were purchased from Invitrogen. Measurements were performed in a reaction volume of 30 μL using half-area 96-well assay plates. […] Binding affinity was determined for each compound by measuring TR-FRET signal at various concentrations of compound and plotting the relative fluorescence units against the inhibitor concentration to estimate the IC50 from log[Inhibitor] vs response using the Variable Slope model in Graphpad prism from Graphpad software (San Diego, Calif.).

Compound | IC50 [1] [µM] | IC50 [2] [µM] | IC50 [3] [µM] | IC50 (Recombinant EGFR) [µM]
COc1ccc(F)cc1C(=O)NCc1ccc(-c2nn(C3CCOC3)c(N)c2C(N)=O)cc1F (stereo not shown) [Example 119, 5-amino-3-[3-fluoro-4-[[(5-fluoro-2-methoxy-benzoyl)amino]methyl]phenyl]-1-tetrahydrofuran-3-yl-pyrazole-4-carboxamide] | 0.01 to 0.1 | < 0.01 | < 0.01 | 1 to 10
COc1ccc(F)cc1C(=O)NCc1ccc(-c2nn(C(C3CCCCC3)C(F)(F)F)c(N)c2C(N)=O)cc1 (stereo not shown) [Example 192, 5-amino-1-(1-cyclohexyl-2,2,2-trifluoro-ethyl)-3-[4-[[(5-fluoro-2-methoxy-benzoyl)amino]methyl]phenyl]pyrazole-4-carboxamide] | 0.1 to 1 | 0.01 to 0.1 | 0.01 to 0.1 | 1 to 10
COc1ccc(F)cc1C(=O)NCc1ccc(-c2nn(C(C(C)C)C(F)(F)F)c(N)c2C(N)=O)cc1 (stereo not shown) [Example 180, 5-amino-3-[4-[[(5-fluoro-2-methoxy-benzoyl)amino]methyl]phenyl]-1-[2-methyl-1-(trifluoromethyl)propyl]pyrazole-4-carboxamide] | 0.01 to 0.1 | < 0.01 | < 0.01 | 1 to 10
COc1ccccc1C(=O)NCc1ccc(-c2nn(C3CCCOC3)c(N)c2C(N)=O)c(F)c1 (stereo not shown) [Example 102, 5-amino-3-[2-fluoro-4-[[(2-methoxybenzoyl)amino]methyl]phenyl]-1-tetrahydropyran-3-yl-pyrazole-4-carboxamide] | 0.1 to 1 | < 0.01 | < 0.01 | > 10
COc1ccccc1C(=O)NCc1ccc(-c2nn(-c3ccc(CO)cc3)c(N)c2C(N)=O)cc1 [Example 49, 5-amino-1-[4-(hydroxymethyl)phenyl]-3-[4-[[(2-methoxybenzoyl)amino]methyl]phenyl]pyrazole-4-carboxamide] | 0.01 to 0.1 | < 0.01 | < 0.01 | 0.1 to 1

Now from value to compound:

IC50 [1] [µM] | IC50 [2] [µM] | IC50 [3] [µM] | IC50 (Recombinant EGFR) [µM] | Compound
0.1 to 1 | 0.01 to 0.1 | 0.01 to 0.1 | > 10 | COc1ccc(F)cc1C(=O)NCc1c(F)cc(-c2nn(C3CCCOC3)c(N)c2C(N)=O)cc1F (stereo not shown) [Example 158, 5-amino-3-[3,5-difluoro-4-[[(5-fluoro-2-methoxy-benzoyl)amino]methyl]phenyl]-1-tetrahydropyran-3-yl-pyrazole-4-carboxamide]
0.01 to 0.1 | < 0.01 | < 0.01 | 1 to 10 | COc1ccc(F)cc1C(=O)NCc1ccc(-c2nn(CC(F)(F)F)c(N)c2C(N)=O)cc1F [Example 128, 5-amino-3-[3-fluoro-4-[[(5-fluoro-2-methoxy-benzoyl)amino]methyl]phenyl]-1-(2,2,2-trifluoroethyl)pyrazole-4-carboxamide]
0.1 to 1 | < 0.01 | < 0.01 | 0.1 to 1 | COc1ccccc1C(=O)NCc1ccc(-c2nn(C3CNCC3(F)F)c(N)c2C(N)=O)cc1 (stereo not shown) [Example 144, 5-amino-1-(4,4-difluoropyrrolidin-3-yl)-3-[4-[[(2-methoxybenzoyl)amino]methyl]phenyl]pyrazole-4-carboxamide]
0.01 to 0.1 | < 0.01 | < 0.01 | 0.1 to 1 | COc1ccccc1C(=O)NCc1ccc(-c2nn([C@@H]3CCc4ccccc43)c(N)c2C(N)=O)cc1 [Example 23, 5-Amino-1-[(1R)-indan-1-yl]-3-[4-[[(2-methoxybenzoyl)amino]methyl]phenyl]pyrazole-4-carboxamide]
0.1 to 1 | 0.01 to 0.1 | 0.01 to 0.1 | > 10 | COc1ccccc1C(=O)NCc1ccc(-c2nn(C(C)c3cccnc3)c(N)c2C(N)=O)cc1 (stereo not shown) [Example 145, 5-amino-3-[4-[[(2-methoxybenzoyl)amino]methyl]phenyl]-1-[1-(3-pyridyl)ethyl]pyrazole-4-carboxamide]
